Results published in US7625887B2, “Receptor agonists” (Takeda Pharmaceutical Company Limited, priority 2003, dated 2009).

Assays:
[1] = tested on: NCI-H716 cells; test: intracellular cAMP production increasing action in NCI-H716 cells; type: cell-based, human; conditions: 10 μM, 2 hrs; production amount in TLCA (50 μM) was 100%; Base 11
Protocol: NCI-H716 (ATCC) was suspended in a medium (Dulbecco's Modified Eagle Medium (DMEM, Invitrogen) supplemented with 10% fetal bovine serum (Invitrogen), 100 U/ml penicillin and 100 μg/ml streptomycin), seeded in a 96 well plate, cultured for 2 days and used for cAMP production assay. As a cAMP assay buffer, modified Krebs-Ringer bicarbonate buffer (KRBH, 116 mM NaCl, 4.7 mM KCl, 1.2 mM KH2PO4, 1.2 MM MgSO4, 2.5 mM CaCl2, 25 mM NaHCO3, 24 mM HEPES pH 7.3), supplemented with glucose 5.5 mM, bovine serum albumin (BSA) 0.1%, and 3-isobutyl-1-methylxanthine (IBMX, Sigma) 1 mM, was used. The cells were washed once with cAMP assay buffer. Bile acids (50 μM) diluted with cAMP assay buffer or the compounds of the present invention (10 μM) were added thereto and the cells were incubated for 2 hrs. The culture supernatant was discarded, and the cAMP production amount was measured by cAMP Screen System (ABI). In the Table, Base means non-addition of a test compound.

[2] = tested on: guinea pig peripheral blood mononuclear cells; test: TNF secretion in LPS-stimulated guinea pig peripheral blood mononuclear cells; type: cell-based; conditions: 16 hrs, test compound 10 μM; non-addition: 160 with LPS, 13 without
Protocol: (§1) The peripheral blood was taken from guinea pig, and mononuclear cell fraction was obtained by a density separation method using Ficoll-Paque PLUS (Amersham Pharmacia). The fraction at a concentration of 1×10^5/well was cultured for 16 hrs in the presence of […] LPS in a 96-well plate upon addition of bile acid or a test compound. The culture supernatant was collected and TNF and IL-6 in the supernatant were quantitated.
The TNF secretion amount in the culture supernatant was measured in the same manner as in Experimental Example 7.

[3] = tested on: guinea pig intestine primary culture cells; test: GLP-1 secretion from guinea pig intestine primary culture cells; type: cell-based; conditions: test compound 10 μM, 90 min
Protocol: Colon mucous membrane of guinea pig (Hartley, male, Charles River Japan, Inc.) was removed and subjected to an enzyme treatment to give a cell dispersion according to the following method.
The enzyme solution used was obtained by dissolving 5 mg/ml Collagenase (Sigma), 5 mg/ml Hyaluronidase (Sigma) and 0.5 mg/ml DNaseI (Sigma) in a medium. The medium used was Dulbecco's Modified Eagle Medium (DMEM, Invitrogen) supplemented with 4.5 g/l Glucose, 5% FBS (Invitrogen), 100 units/ml Penicillin (Invitrogen), 100 μg/ml Streptomycin (Invitrogen), 50 μg/ml Gentamicin (Invitrogen) and 20 mM Hepes (pH 7.3). After digestion by the enzyme solution at 37° C., the tissue sections were prepared into dispersed cells by passing through a pipette 4 times and the cells were collected. The collected cells were washed with a buffer (incubation buffer) obtained by adding 5.5 mM Glucose and 0.1% BSA to a modified Krebs-Ringer bicarbonate buffer (KRBH, 116 mM NaCl, 4.7 mM KCl, 1.2 mM KH2PO4, 1.2 MM MgSO4, 2.5 mM CaCl2, 25 mM NaHCO3, 24 mM HEPES, pH 7.3), and preincubated at 37° C. under 5% CO2 for 30 min. 0.1 μM Phorbol ester (Wako), 1% DPPIV inhibitor (Linco) and a test compound were added to the above-mentioned incubation buffer, and the obtained buffer was added to the cells after the aforementioned preincubation and incubated for 90 min. The culture supernatant was collected and cryopreserved. The concentration of GLP-1 released in the culture supernatant was measured using an ELISA kit (Linco).

[4] = tested on: NCI-H716 cells; test: GLP-1 secretion from NCI-H716 cell line; type: cell-based, human; conditions: 5 μM, 2 hrs; secretion amount in Base was 100%
Protocol: NCI-H716 cells secrete Glucagon-like peptide-1 (GLP-1). GLP-1 is a peptide useful for controlling blood glucose level because it acts on the pancreas to cause secretion of insulin and the like. In the same manner as in Experimental Example 9, NCI-H716 (ATCC) was seeded in a 96 well plate and, after incubation for 2 days, used for the following secretion test. As a buffer for secretion test, modified Krebs-Ringer bicarbonate buffer (KRBH, 116 mM NaCl, 4.7 mM KCl, 1.2 mM KH2PO4, 1.2 mM MgSO4, 2.5 mM CaCl2, 25 mM NaHCO3, 24 mM HEPES, pH 7.3) supplemented with glucose 5.5 mM and BSA 0.1% was used. The cells were washed once with the buffer for secretion test, preincubated at 37° C. under 5% CO2, bile acid diluted with the buffer for secretion test was added and the cells were cultured at 37° C. under 5% CO2 for 2 hrs. The cell culture supernatant was collected, cryopreserved and the GLP-1 content in the supernatant was measured using a GLP-1 measurement EIA kit (Linco) The results are shown in Table 9. In the Table, Base means non-addition of a test compound.

[5] = tested on: guinea pig TGR5; test: cAMP production increasing activity in guinea pig TGR5 expressing CHO cells; type: cell-based; conditions: test compound 2 μM; 10 μM lithocholic acid = 100%; average of 3 groups
[6] = tested on: guinea pig peripheral blood mononuclear cells; test: IL-6 secretion in LPS-stimulated guinea pig peripheral blood mononuclear cells; type: cell-based; conditions: 16 hrs, test compound 10 μM; non-addition: 520 with LPS, 32 without
Protocol: as §1
The quantitation of IL-6 in the culture supernatant was performed using IL-6 dependent cell line 7TD1 (RIKEN Institute) with its growth promoting action as an index. First, 7TD1 cells were suspended in a basic medium (RPMI1640 (Invitrogen) supplemented with 1% non-essential amino acid (Invitrogen) and 55 μM 2-mercaptoethanol (Invitrogen)) and seeded in a 96-well plate at a concentration of 2×10^3/well. Immediately after seeding, peripheral blood mononuclear cell culture supernatant diluted with a dilution medium (the above-mentioned basic medium supplemented with 10% FBS) was added and the cells were cultured for 2 days. The IL-6 content was determined by measuring the growth of the 7TD1 cells in the obtained culture product using a CellTiter-Glo (Promega). As the standard sample, human recombinant IL-6 (Genzyme) was used.

[7] = target: T1, human TGR5 (Homo sapiens, UniProt Q8TDU6); test: cAMP production increasing activity in human TGR5 expressing CHO cells; type: cell-based; conditions: read-out: EC50 value (concentration necessary to make the cAMP production amount 50%)
T1 construct: expressed in transfected cells; host or cells: CHO cells
T1 sequence (Q8TDU6 1-330): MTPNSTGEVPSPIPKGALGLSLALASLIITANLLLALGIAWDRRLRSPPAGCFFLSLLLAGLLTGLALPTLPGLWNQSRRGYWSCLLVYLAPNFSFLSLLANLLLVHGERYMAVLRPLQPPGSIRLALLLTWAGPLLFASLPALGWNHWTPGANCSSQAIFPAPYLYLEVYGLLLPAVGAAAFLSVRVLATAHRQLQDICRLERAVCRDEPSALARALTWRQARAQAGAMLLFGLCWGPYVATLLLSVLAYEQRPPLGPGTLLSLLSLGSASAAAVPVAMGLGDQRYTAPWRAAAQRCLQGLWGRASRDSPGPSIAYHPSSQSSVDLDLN

SMILES	cAMP production increasing activity (%) [1]	TNF α [2]	GLP-1 (% relative to non-addition) [3]	GLP-1 secretion increase (%) [4]	cAMP producing activity (control %) [5]	IL-6 [6]	EC50 [7]
O=S(=O)(c1cc(C(F)(F)F)cc(C(F)(F)F)c1)N1CCOc2nccc(-c3ccccc3)c2C1 [Example 22C, 4-{[3,5-bis(trifluoromethyl)phenyl]sulfonyl}-6-phenyl-2,3,4,5-tetrahydropyrido[3,2-f][1,4]oxazepine]	100%	66 pg/mL	313 % relative to non-addition	127%	101 control %	170 pg/mL	
CC(=O)NCc1cccc(C2OC(CC(=O)NCc3ccccc3C(F)(F)F)C(=O)N(CC(C)(C)C)c3ccc(Cl)cc32)c1 (stereo not drawn) [Example 14, 2-[3,5-trans-5-[3-(acetylaminomethyl)phenyl]-7-chloro-1-neopentyl-2-oxo-1,2,3,5-tetrahydro-4,1-benzoxazepin-3-yl]-N-[2-(trifluoromethyl)benzyl]acetamide]	104%	83 pg/mL	167 % relative to non-addition	157%	76 control %	260 pg/mL	< 100 nM
